The supplement of paper PMC10307832

Legend:
Assay in all cases: relative viability (nuclei count vs DMSO), 5 days (fraction); higher = more cells survive
[1] = compound: C1COCCN1CC2=CC(=O)C(=CO2)OCCCCCSC3=C4C=CC(=CC4=NC=C3)C(F)(F)F [EHT 1864]
Summary of the method: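 For viability, nuclei in each treated well were divided by nuclei in vehicle wells and the median across plates was taken. Lung cancer cell lines in 1536-well plates were pinned with five library-drug doses (not always all listed) spaced by √10, cultured 5 days without medium change, and imaged at 4× after Hoechst staining, with plates passing only at control CV below 25% and at least one doubling.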

[2] = compound: C1COCCN1CC2=CC(=O)C(=CO2)OCCCCCSC3=C4C=CC(=CC4=NC=C3)C(F)(F)F [EHT 1864] + Cc1cc(Nc2cc(N3CCN(C)CC3)nc(Sc3ccc(NC(=O)C4CC4)cc3)n2)n[nH]1 [Tozasertib] (partner 0.1 µM)
Summary of the method: (§1)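 For relative viability, nuclei counts in treated wells were divided by those in vehicle wells. Lung cancer cell lines had been pin-tool dosed in 1536-well plates the day after seeding and cultured for 5 days, then fixed and stained in one step (final 0.05% Triton X-100, 1% formaldehyde, 1 ug/ml Hoechst) and imaged at 4×. Doses were one drug alone or a fixed anchor-drug dose plus five library-drug doses (not always all listed) in √10 steps, and values are duplicate-plate medians.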

[3] = compound: C1COCCN1CC2=CC(=O)C(=CO2)OCCCCCSC3=C4C=CC(=CC4=NC=C3)C(F)(F)F [EHT 1864] + COc1cc2c(Oc3ccc(NC(=O)C4(C(=O)Nc5ccc(F)cc5)CC4)cc3F)ccnc2cc1OCCCN1CCOCC1 [Foretinib] (partner 0.25 µM)
Summary of the method: as §1

[4] = compound: C1COCCN1CC2=CC(=O)C(=CO2)OCCCCCSC3=C4C=CC(=CC4=NC=C3)C(F)(F)F [EHT 1864] + Nc1nc2[nH]cc(CCc3ccc(C(=O)N[C@@H](CCC(=O)O)C(=O)O)cc3)c2c(=O)[nH]1 [Pemetrexed] (partner 0.2 µM)
Summary of the method: as §1

[5] = compound: C1COCCN1CC2=CC(=O)C(=CO2)OCCCCCSC3=C4C=CC(=CC4=NC=C3)C(F)(F)F [EHT 1864] + CC(=O)c1c(C)c2cnc(Nc3ccc(N4CCNCC4)cn3)nc2n(C2CCCC2)c1=O [Palbociclib] (partner 0.5 µM)
Summary of the method: as §1

[6] = compound: C1COCCN1CC2=CC(=O)C(=CO2)OCCCCCSC3=C4C=CC(=CC4=NC=C3)C(F)(F)F [EHT 1864] + Cc1nc(Nc2ncc(C(=O)Nc3c(C)cccc3Cl)s2)cc(N2CCN(CCO)CC2)n1 [Dasatinib] (partner 0.075 µM)
Summary of the method: as §1

[7] = compound: C1COCCN1CC2=CC(=O)C(=CO2)OCCCCCSC3=C4C=CC(=CC4=NC=C3)C(F)(F)F [EHT 1864] + O=C(c1cc(Cc2n[nH]c(=O)c3ccccc23)ccc1F)N1CCN(C(=O)C2CC2)CC1 [Olaparib] (partner 8 µM)
Summary of the method: as §1

[8] = compound: C1COCCN1CC2=CC(=O)C(=CO2)OCCCCCSC3=C4C=CC(=CC4=NC=C3)C(F)(F)F [EHT 1864] + CCNC(=O)c1noc(-c2cc(C(C)C)c(O)cc2O)c1-c1ccc(CN2CCOCC2)cc1 [Luminespib] (partner 0.01 µM)
Summary of the method: as §1

[9] = compound: C1COCCN1CC2=CC(=O)C(=CO2)OCCCCCSC3=C4C=CC(=CC4=NC=C3)C(F)(F)F [EHT 1864] + Nc1ncn([C@H]2C[C@H](O)[C@@H](CO)O2)c(=O)n1 [Decitabine] (partner 2 µM)
Summary of the method: as §1

[10] = compound: C1COCCN1CC2=CC(=O)C(=CO2)OCCCCCSC3=C4C=CC(=CC4=NC=C3)C(F)(F)F [EHT 1864] + COc1cccc2cc(-c3nc([C@H]4CC[C@H](C(=O)O)CC4)n4ncnc(N)c34)[nH]c12 [OSI-027] (partner 0.5 µM)
Summary of the method: as §1

[11] = compound: C1COCCN1CC2=CC(=O)C(=CO2)OCCCCCSC3=C4C=CC(=CC4=NC=C3)C(F)(F)F [EHT 1864] + N=C(N)NC(=N)NCCc1ccccc1 [Phenformin] (partner 250 µM)
Summary of the method: as §1

[12] = compound: C1COCCN1CC2=CC(=O)C(=CO2)OCCCCCSC3=C4C=CC(=CC4=NC=C3)C(F)(F)F [EHT 1864] + NC(=O)Nc1cc(-c2cccc(F)c2)sc1C(=O)N[C@H]1CCCNC1 [AZD7762] (partner 0.2 µM)
Summary of the method: as §1

[13] = compound: C1COCCN1CC2=CC(=O)C(=CO2)OCCCCCSC3=C4C=CC(=CC4=NC=C3)C(F)(F)F [EHT 1864] + O=C(CCCCCCC(=O)Nc1ccccc1)NO [Vorinostat] (partner 1 µM)
Summary of the method: as §1

[14] = compound: C1COCCN1CC2=CC(=O)C(=CO2)OCCCCCSC3=C4C=CC(=CC4=NC=C3)C(F)(F)F [EHT 1864] + CC(=O)Nc1cccc(-n2c(=O)n(C3CC3)c(=O)c3c(Nc4ccc(I)cc4F)n(C)c(=O)c(C)c32)c1 [Trametinib] (partner 0.02 µM)
Summary of the method: as §1

## SW 900
[1]; 0.04 µM
  relative viability: 0.942
[1]; 0.4 µM
  relative viability: 0.929
[1]; 1.265 µM
  relative viability: 0.929
[1]; 4 µM
  relative viability: 0.782
[2]; first compound 0.04 µM
  relative viability: 0.531
[2]; first compound 0.4 µM
  relative viability: 0.49
[2]; first compound 1.265 µM
  relative viability: 0.577
[2]; first compound 4 µM
  relative viability: 0.481
[3]; first compound 0.04 µM
  relative viability: 0.524
[3]; first compound 0.4 µM
  relative viability: 0.862
[3]; first compound 1.265 µM
  relative viability: 0.89
[3]; first compound 4 µM
  relative viability: 0.687
[4]; first compound 0.04 µM
  relative viability: 0.477
[4]; first compound 0.4 µM
  relative viability: 0.463
[4]; first compound 1.265 µM
  relative viability: 0.473
[4]; first compound 4 µM
  relative viability: 0.446
[5]; first compound 0.04 µM
  relative viability: 0.515
[5]; first compound 0.4 µM
  relative viability: 0.586
[5]; first compound 1.265 µM
  relative viability: 0.573
[5]; first compound 4 µM
  relative viability: 0.498
[6]; first compound 0.04 µM
  relative viability: 0.809
[6]; first compound 0.4 µM
  relative viability: 0.684
[6]; first compound 1.265 µM
  relative viability: 1.02
[6]; first compound 4 µM
  relative viability: 0.552
[7]; first compound 0.04 µM
  relative viability: 0.73
[7]; first compound 0.4 µM
  relative viability: 0.907
[7]; first compound 1.265 µM
  relative viability: 0.857
[7]; first compound 4 µM
  relative viability: 0.803
[8]; first compound 0.04 µM
  relative viability: 0.177
[8]; first compound 0.4 µM
  relative viability: 0.181
[8]; first compound 1.265 µM
  relative viability: 0.177
[8]; first compound 4 µM
  relative viability: 0.145
[9]; first compound 0.04 µM
  relative viability: 0.449
[9]; first compound 0.4 µM
  relative viability: 0.419
[9]; first compound 1.265 µM
  relative viability: 0.46
[9]; first compound 4 µM
  relative viability: 0.504
[10]; first compound 0.04 µM
  relative viability: 0.555
[10]; first compound 0.4 µM
  relative viability: 0.548
[10]; first compound 1.265 µM
  relative viability: 0.583
[10]; first compound 4 µM
  relative viability: 0.483
[11]; first compound 0.04 µM
  relative viability: 0.435
[11]; first compound 0.4 µM
  relative viability: 0.569
[11]; first compound 1.265 µM
  relative viability: 0.521
[11]; first compound 4 µM
  relative viability: 0.597
[12]; first compound 0.04 µM
  relative viability: 0.582
[12]; first compound 0.4 µM
  relative viability: 0.681
[12]; first compound 1.265 µM
  relative viability: 0.632
[12]; first compound 4 µM
  relative viability: 0.59
[13]; first compound 0.04 µM
  relative viability: 0.54
[13]; first compound 0.4 µM
  relative viability: 0.531
[13]; first compound 1.265 µM
  relative viability: 0.589
[13]; first compound 4 µM
  relative viability: 0.467
[14]; first compound 0.04 µM
  relative viability: 0.686
[14]; first compound 0.4 µM
  relative viability: 0.77
[14]; first compound 1.265 µM
  relative viability: 0.796
[14]; first compound 4 µM
  relative viability: 0.758
